Measured values taken from ChEMBL document CHEMBL2177070, “The effect of the placement and total charge of the basic amino acid clusters on antibacterial organism selectivity and potency” (Bioorg Med Chem, 2011).
≈ marks a conversion by molar mass, not a printed value. Square brackets hold non-standard residues; d marks the D form. Peptide text beside a SMILES is read from it. ξ: configuration not given here. Oic(3aξ,7aξ) = O=C(O)[C@@H]1CC2CCCCC2N1; Tiq1c(1S) = O=C(O)[C@H]1NCCc2ccccc21

How the values were obtained:
[1] = Binding affinity to DPC micelles by CD spectra analysis; format: physicochemical
Bacillus anthracis = assay: Antimicrobial activity against Bacillus anthracis AMES; format: functional
[2] = Induction of calcein leakage in 1-palmitoyl-2-oleoyl-sn-glycero-3-phosphocholine large unilamellar vesicle assessed as leakage constant after 90 mins by fluorescence assay; format: physicochemical; details: 1.5 h
[3] = system: Burkholderia pseudomallei; assay: Antimicrobial activity against Burkholderia pseudomallei; format: functional
[4] = Binding affinity to 1-palmitoyl-2-oleoyl-sn-glycero-3-phosphocholine small unilamellar vesicle in 40 mM phosphate buffer at pH 6.8 at 100 uM by Far-UV CD spectra analysis; format: physicochemical; details: pH 6.8, 100 µM
Staphylococcus aureus [5] = assay: Antimicrobial activity against Staphylococcus aureus ATCC 33591; format: functional
[6] = Binding affinity to 1-palmitoyl-2-oleoyl-sn-glycero-3-phosphocholine/1-palmitoyl- 2-oleoyl-sn-glycero-3-[phospho-rac-(1-glycerol)] (sodium salt) large unilamellar vesicle in 40 mM phosphate buffer at pH 6.8 at 100 uM by Far-UV CD spectra analysis; format: physicochemical; details: pH 6.8, 100 µM
[7] = Induction of calcein leakage in 1-palmitoyl-2-oleoyl-sn-glycero-3-phosphocholine large unilamellar vesicle at 4 to 20 uM after 90 mins by fluorescence assay; format: physicochemical; details: 1.5 h
[8] = Binding affinity to 1-palmitoyl-2-oleoyl-sn-glycero-3-phosphocholine large unilamellar vesicle at 100 uM by isothermal titration calorimetry analysis; format: physicochemical
[9] = Binding affinity to 1-palmitoyl-2-oleoyl-sn-glycero-3-phosphocholine/1-palmitoyl- 2-oleoyl-sn-glycero-3-[phospho-rac-(1-glycerol)] (sodium salt) small unilamellar vesicle in 40 mM phosphate buffer at pH 6.8 at 100 uM by Far-UV CD spectra analysis; format: physicochemical; details: pH 6.8, 100 µM
Burkholderia mallei = assay: Antimicrobial activity against Burkholderia mallei; format: functional
Brucella abortus = assay: Antimicrobial activity against Brucella abortus 2308; format: functional
[10] = Binding affinity to 1-palmitoyl-2-oleoyl-sn-glycero-3-phosphocholine large unilamellar vesicle in 40 mM phosphate buffer at pH 6.8 at 100 uM by Far-UV CD spectra analysis; format: physicochemical; details: pH 6.8, 100 µM
[11] = system: Francisella tularensis subsp. tularensis SCHU S4; assay: Antimicrobial activity against Francisella tularensis SCHUS4; format: functional
Acinetobacter baumannii [12] = assay: Antimicrobial activity against Acinetobacter baumannii ATCC 19606; format: functional
[13] = Induction of calcein leakage in 1-palmitoyl-2-oleoyl-sn-glycero-3-phosphocholine/1-palmitoyl- 2-oleoyl-sn-glycero-3-[phospho-rac-(1-glycerol)] (sodium salt) large unilamellar vesicle assessed as leakage constant after 90 mins by fluorescence assay; format: physicochemical; details: 1.5 h
Acinetobacter baumannii [14] = assay: Antimicrobial activity against Acinetobacter baumannii WRAIR; format: functional
[15] = Induction of calcein leakage in 1-palmitoyl-2-oleoyl-sn-glycero-3-phosphocholine/1-palmitoyl- 2-oleoyl-sn-glycero-3-[phospho-rac-(1-glycerol)] (sodium salt) large unilamellar vesicle at 4 to 20 uM after 90 mins by fluorescence assay; format: physicochemical; details: 1.5 h
[16] = Binding affinity to SDS micelles by CD spectra analysis; format: physicochemical
Yersinia pestis = assay: Antimicrobial activity against Yersinia pestis CO92; format: functional
Brucella suis = assay: Antimicrobial activity against Brucella suis 23444; format: functional
Brucella melitensis = assay: Antimicrobial activity against Brucella melitensis 16M; format: functional
[17] = Binding affinity to 1-palmitoyl-2-oleoyl-sn-glycero-3-phosphocholine/1-palmitoyl- 2-oleoyl-sn-glycero-3-[phospho-rac-(1-glycerol)] (sodium salt) large unilamellar vesicle at 200 uM by isothermal titration calorimetry analysis; format: physicochemical
Mycobacterium = assay: Antimicrobial activity against Mycobacterium ranae; format: functional
[18] = Binding affinity to 1-palmitoyl-2-oleoyl-sn-glycero-3-phosphocholine large unilamellar vesicle at 200 uM by isothermal titration calorimetry analysis; format: physicochemical
[19] = Binding affinity to 1-palmitoyl-2-oleoyl-sn-glycero-3-phosphocholine/1-palmitoyl- 2-oleoyl-sn-glycero-3-[phospho-rac-(1-glycerol)] (sodium salt) large unilamellar vesicle in 40 mM phosphate buffer at pH 6.8 at 75 uM by Far-UV CD spectra analysis; format: physicochemical; details: pH 6.8, 75 µM
Bacillus subtilis = assay: Antimicrobial activity against Bacillus subtilis; format: functional
Staphylococcus aureus [20] = assay: Antimicrobial activity against ME/GM/TC-resistant Staphylococcus aureus; format: functional
[21] = Binding affinity to 1-palmitoyl-2-oleoyl-sn-glycero-3-phosphocholine small unilamellar vesicle in 40 mM phosphate buffer at pH 6.8 at 75 uM by Far-UV CD spectra analysis; format: physicochemical; details: pH 6.8, 75 µM
Salmonella typhimurium = assay: Antimicrobial activity against Salmonella typhimurium; format: functional, Salmonella enterica subsp. enterica serovar Typhimurium; details: Salmonella enterica
[22] = Binding affinity to 1-palmitoyl-2-oleoyl-sn-glycero-3-phosphocholine/1-palmitoyl- 2-oleoyl-sn-glycero-3-[phospho-rac-(1-glycerol)] (sodium salt) small unilamellar vesicle in 40 mM phosphate buffer at pH 6.8 at 75 uM by Far-UV CD spectra analysis; format: physicochemical; details: pH 6.8, 75 µM
[23] = Binding affinity to 1-palmitoyl-2-oleoyl-sn-glycero-3-phosphocholine large unilamellar vesicle in 40 mM phosphate buffer at pH 6.8 at 75 uM by Far-UV CD spectra analysis; format: physicochemical; details: pH 6.8, 75 µM

| SMILES | Activity [1] | MIC (Bacillus anthracis) | K [2] | MIC [3] | Activity [4] | MIC (Staphylococcus aureus [5]) | Activity [6] | Activity [8] | Activity [9] | MIC (Burkholderia mallei) | MIC (Brucella abortus) | Activity [10] | MIC [11] | MIC (Acinetobacter baumannii [12]) | K [13] | MIC (Acinetobacter baumannii [14]) | Activity [15] | Activity [16] | MIC (Yersinia pestis) | Activity [17] | also measured |
| --- | --- | --- | --- | --- | --- | --- | --- | --- | --- | --- | --- | --- | --- | --- | --- | --- | --- | --- | --- | --- | --- |
| CC(=O)NCC(=O)N[C@@H](Cc1ccccc1)C(=O)N1CCc2ccccc2[C@H]1C(=O)N1C2CCCCC2C[C@H]1C(=O)NCC(=O)N[C@@H](CCCCN)C(=O)N1CCc2ccccc2[C@H]1C(=O)N1C2CCCCC2C[C@H]1C(=O)NCC(=O)N[C@@H](Cc1ccccc1)C(=O)N1CCc2ccccc2[C@H]1C(=O)N1C2CCCCC2C[C@H]1C(=O)NCC(=O)N[C@@H](CCCCN)C(=O)N1CCc2ccccc2[C@H]1C(=O)N[C@@H](CCCCN)C(=O)N[C@@H](CCCCN)C(=O)N[C@@H](CCCCN)C(N)=O (stereo partly drawn) (Ac-GF[Tiq1c(1S)][Oic(3aξ,7aξ)]GK[Tiq1c(1S)][Oic(3aξ,7aξ)]GF[Tiq1c(1S)][Oic(3aξ,7aξ)]GK[Tiq1c(1S)]KKK-NH2) | Active | 27 µM (≈ 62.4 µg/mL) | 0.014 | 0.02 µM (≈ 0.0463 µg/mL) | Active | 54 µM (≈ 125 µg/mL) | Active | Active | Active | 0.02 µM (≈ 0.0463 µg/mL) | 27 µM (≈ 62.4 µg/mL) | Active | 0.02 µM (≈ 0.0463 µg/mL) | 6.7 µM (≈ 15.5 µg/mL) | 0.075 | 3.4 µM (≈ 7.86 µg/mL) | Active | Active | 27 µM (≈ 62.4 µg/mL) | Active | Activity [7]: Active; MIC (Brucella suis): > 216 µM; MIC (Brucella melitensis): 54 µM (≈ 125 µg/mL) |
| CC(=O)NCC(=O)N[C@@H](Cc1ccccc1)C(=O)N1CCc2ccccc2[C@H]1C(=O)N1C2CCCCC2C[C@H]1C(=O)NCC(=O)N[C@@H](CCCCN)C(=O)N1CCc2ccccc2[C@H]1C(=O)N1C2CCCCC2C[C@H]1C(=O)NCC(=O)N[C@@H](Cc1ccccc1)C(=O)N1CCc2ccccc2[C@H]1C(=O)N1C2CCCCC2C[C@H]1C(=O)NCC(=O)N[C@@H](CCCCN)C(=O)N1CCc2ccccc2[C@H]1C(=O)N[C@@H](CCCCN)C(=O)N[C@@H](CCCCN)C(=O)N[C@@H](CCCCN)C(=O)N[C@@H](CCCCN)C(N)=O (stereo partly drawn) (Ac-GF[Tiq1c(1S)][Oic(3aξ,7aξ)]GK[Tiq1c(1S)][Oic(3aξ,7aξ)]GF[Tiq1c(1S)][Oic(3aξ,7aξ)]GK[Tiq1c(1S)]KKKK-NH2) | Active | 12.8 µM (≈ 31.2 µg/mL) | 0.097 | 205 µM (≈ 500 µg/mL) |  | 205 µM (≈ 500 µg/mL) |  |  |  | 205 µM (≈ 500 µg/mL) | 205 µM (≈ 500 µg/mL) |  | 100 µM (≈ 244 µg/mL) | 3.2 µM (≈ 7.81 µg/mL) | 0.089 | 3.2 µM (≈ 7.81 µg/mL) | Not Active | Active | 205 µM (≈ 500 µg/mL) | Active | MIC (Mycobacterium): 10 µM (≈ 24.4 µg/mL); Activity [18]: Active; Activity [19]: Active; MIC (Bacillus subtilis): 1 µM (≈ 2.44 µg/mL); MIC (Staphylococcus aureus [20]): 3 µM (≈ 7.32 µg/mL); Activity [21]: Active; MIC (Salmonella typhimurium): 10 µM (≈ 24.4 µg/mL); MIC (Brucella suis): 205 µM (≈ 500 µg/mL); Activity [22]: Active; MIC (Brucella melitensis): 205 µM (≈ 500 µg/mL); Activity [23]: Active |
| CC(=O)NCC(=O)N[C@@H](Cc1ccccc1)C(=O)N1CCc2ccccc2[C@H]1C(=O)N1C2CCCCC2C[C@H]1C(=O)NCC(=O)N[C@@H](CCCCN)C(=O)N1CCc2ccccc2[C@H]1C(=O)N1C2CCCCC2C[C@H]1C(=O)NCC(=O)N[C@@H](Cc1ccccc1)C(=O)N1CCc2ccccc2[C@H]1C(=O)N1C2CCCCC2C[C@H]1C(=O)NCC(=O)N[C@@H](CCCCN)C(=O)N1CCc2ccccc2[C@H]1C(=O)N[C@@H](CCCCN)C(=O)N[C@@H](CCCCN)C(=O)N[C@@H](CCCCN)C(=O)N[C@@H](CCCCN)C(=O)N[C@@H](CCCCN)C(N)=O (stereo partly drawn) (Ac-GF[Tiq1c(1S)][Oic(3aξ,7aξ)]GK[Tiq1c(1S)][Oic(3aξ,7aξ)]GF[Tiq1c(1S)][Oic(3aξ,7aξ)]GK[Tiq1c(1S)]KKKKK-NH2) |  |  | 0.0011 |  | Active |  | Active | Active | Active |  |  | Active |  |  | 0.073 |  | Not Active |  |  | Active | MIC (Mycobacterium): 3 µM (≈ 7.71 µg/mL); MIC (Bacillus subtilis): 1 µM (≈ 2.57 µg/mL); MIC (Staphylococcus aureus [20]): 3 µM (≈ 7.71 µg/mL); MIC (Salmonella typhimurium): 10 µM (≈ 25.7 µg/mL) |
| CC(=O)N[C@@H](CCCCN)C(=O)N[C@@H](CCCCN)C(=O)N[C@@H](CCCCN)C(=O)N[C@@H](CCCCN)C(=O)NCC(=O)N[C@@H](Cc1ccccc1)C(=O)N1CCc2ccccc2[C@H]1C(=O)N1C2CCCCC2C[C@H]1C(=O)NCC(=O)N[C@@H](CCCCN)C(=O)N1CCc2ccccc2[C@H]1C(=O)N1C2CCCCC2C[C@H]1C(=O)NCC(=O)N[C@@H](Cc1ccccc1)C(=O)N1CCc2ccccc2[C@H]1C(=O)N1C2CCCCC2C[C@H]1C(=O)NCC(=O)N[C@@H](CCCCN)C(=O)N1CCc2ccccc2[C@H]1C(N)=O (stereo partly drawn) (Ac-KKKKGF[Tiq1c(1S)][Oic(3aξ,7aξ)]GK[Tiq1c(1S)][Oic(3aξ,7aξ)]GF[Tiq1c(1S)][Oic(3aξ,7aξ)]GK[Tiq1c(1S)]-NH2) | Active | 0.4 µM (≈ 0.976 µg/mL) | 0.57 | 204 µM (≈ 498 µg/mL) | Active | 102 µM (≈ 249 µg/mL) | Active | Active | Active | 204 µM (≈ 498 µg/mL) | 51 µM (≈ 124 µg/mL) | Active | 51 µM (≈ 124 µg/mL) | 12.8 µM (≈ 31.2 µg/mL) | 0.0085 | 12.8 µM (≈ 31.2 µg/mL) | Active | Active | 13.1 µM (≈ 32 µg/mL) | Active | MIC (Mycobacterium): 3 µM (≈ 7.32 µg/mL); MIC (Staphylococcus aureus [20]): 30 µM (≈ 73.2 µg/mL); Activity [7]: Active; MIC (Salmonella typhimurium): 100 µM (≈ 244 µg/mL); MIC (Brucella suis): 25.6 µM (≈ 62.5 µg/mL); MIC (Brucella melitensis): 51 µM (≈ 124 µg/mL) |
